Measured values as given in PubChem BioAssay (NCI).
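Briefly, cells in 96-well plates were exposed to five compound concentrations for 48 h, and endpoints were estimated by linear interpolation. Abbreviation: GI50, concentration required for 50% inhibition of growth. The concentration for full growth arrest is given as TGI.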

Key:
Experiment in all cases: NCI anticancer screen, dose series, 48 h
HCT-116 colon = test system: HCT-116 colon
HCT-15 colon = test system: HCT-15 colon
HOP-92 NSCLC = test system: HOP-92 NSCLC
MDA-MB-435 = test system: MDA-MB-435
K-562 leukemia = test system: K-562 leukemia
786-0 renal = test system: 786-0 renal
NCI/ADR-RES ovarian = test system: NCI/ADR-RES ovarian
MALME-3M melanoma = test system: MALME-3M melanoma
SK-MEL-5 melanoma = test system: SK-MEL-5 melanoma
SF-539 CNS = test system: SF-539 CNS
OVCAR-8 ovarian = test system: OVCAR-8 ovarian
UO-31 renal = test system: UO-31 renal
KM12 colon = test system: KM12 colon
NCI-H226 lung = test system: NCI-H226 lung

| SMILES | TGI (HCT-116 colon) | TGI (HCT-15 colon) | TGI (HOP-92 NSCLC) | TGI (MDA-MB-435) | TGI (K-562 leukemia) | TGI (786-0 renal) | TGI (NCI/ADR-RES ovarian) | TGI (MALME-3M melanoma) | TGI (SK-MEL-5 melanoma) | TGI (SF-539 CNS) | TGI (OVCAR-8 ovarian) | TGI (UO-31 renal) | TGI (KM12 colon) | TGI (NCI-H226 lung) | GI50 (HCT-116 colon) | GI50 (HOP-92 NSCLC) | GI50 (MDA-MB-435) | GI50 (K-562 leukemia) | GI50 (NCI/ADR-RES ovarian) | GI50 (SF-539 CNS) |
| --- | --- | --- | --- | --- | --- | --- | --- | --- | --- | --- | --- | --- | --- | --- | --- | --- | --- | --- | --- | --- |
| c1ccc(C2=Nc3nc4ccccc4n3C(c3ccccc3)C2)cc1 (configuration not stated) | > 100 µM | > 100 µM | > 100 µM | > 100 µM | > 100 µM | > 100 µM | > 100 µM | > 100 µM | > 100 µM | > 100 µM | > 100 µM | > 100 µM | > 100 µM | > 100 µM | – | – | – | – | – | – |
| CCOC(=O)/C(=C\c1ccc(N(C)C)cc1)S(=O)(=O)C(F)(F)C(F)(F)C(F)(F)C(F)(F)F | > 100 µM | > 100 µM | > 100 µM | > 100 µM | > 100 µM | > 100 µM | > 100 µM | > 100 µM | > 100 µM | > 100 µM | > 100 µM | > 100 µM | > 100 µM | > 100 µM | – | – | – | – | – | – |
| Clc1cc2c(c(CSC3=NCN(CC4CC4)CN3)c1)OCOC2 | 42.8 µM | > 100 µM | > 100 µM | 74.3 µM | > 100 µM | 52.2 µM | 72.9 µM | 34.2 µM | 32.2 µM | 43.4 µM | > 100 µM | 37.1 µM | > 100 µM | 48.9 µM | – | – | – | – | – | – |
| Cc1ccc(OCC2OC(n3cnc4nc(Cl)nc(Cl)c43)CC2Oc2ccc(C)cc2)cc1 (configuration not stated) | 17.9 µM | 6.33 µM | 9.88 µM | 24.3 µM | 4.83 µM | 19.9 µM | 37.8 µM | 33.9 µM | 30.8 µM | 13.9 µM | 59.5 µM | 22 µM | 23.7 µM | 36.3 µM | – | – | – | – | – | – |
| ClC(Cl)(Cl)C1=N[C@H]2[C@H](Br)[C@@H]3O[C@@H](c4ccccc4)[C@H](c4ccccc4)O[C@@H]3[C@H]2O1 | 39 µM | 67.3 µM | 31.5 µM | 42.4 µM | 54 µM | 39.6 µM | 65.2 µM | 36.2 µM | 31.2 µM | – | 33.3 µM | 38.5 µM | 45.6 µM | 35.5 µM | – | – | – | – | – | – |
| C=CCOc1ccccc1N=N/C(C#N)=N\Nc1ccccc1OCC=C | > 100 µM | > 100 µM | > 100 µM | > 100 µM | > 100 µM | > 100 µM | > 100 µM | > 100 µM | > 100 µM | > 100 µM | > 100 µM | > 100 µM | > 100 µM | > 100 µM | – | – | – | – | – | – |
| COC(=O)/C=C(\C)C(=O)N(C)c1ccccc1I | > 100 µM | > 100 µM | > 100 µM | > 100 µM | > 100 µM | > 100 µM | > 100 µM | > 100 µM | > 100 µM | – | > 100 µM | > 100 µM | > 100 µM | > 100 µM | – | – | – | – | – | – |
| CCOC(=O)c1c(Br)c(-c2ccc(Br)cc2)c(Br)n1C | 34.4 µM | 73 µM | 55.7 µM | 22.6 µM | 35.1 µM | 89.7 µM | 87.5 µM | 62.7 µM | 35.2 µM | 73.2 µM | 87.1 µM | > 100 µM | 26.4 µM | 49.4 µM | 14.8 µM | 14.3 µM | 4.26 µM | 11.3 µM | 21.2 µM | – |
| Cn1c(C(C#N)c2nc(Cl)ncc2Br)nc2ccccc21 (configuration not stated) | > 100 µM | > 100 µM | > 100 µM | > 100 µM | – | > 100 µM | > 100 µM | > 100 µM | > 100 µM | > 100 µM | > 100 µM | > 100 µM | > 100 µM | > 100 µM | – | – | – | – | – | – |
| COC(=O)c1cc(NC(=O)c2cc(NC(=O)c3cc([N+](=O)[O-])cn3C)cn2C)cn1C | > 100 µM | > 100 µM | 95.7 µM | > 100 µM | > 100 µM | > 100 µM | > 100 µM | > 100 µM | 91.9 µM | > 100 µM | > 100 µM | > 100 µM | > 100 µM | > 100 µM | – | – | – | – | – | – |
| NCCCn1c2ccccc2c2c3c(c4c(c21)CCC(O)CC4)C(=O)NC3=O (configuration not stated) | 28.4 µM | 23 µM | 12.9 µM | 13.6 µM | 8.5 µM | 16.8 µM | 32.9 µM | 15.8 µM | 16.5 µM | 21.6 µM | 21.6 µM | 19.9 µM | 10.7 µM | 13.6 µM | – | – | – | – | – | – |
| Cc1cc(CNC(=O)OCc2ccccc2)c(C)c2c1Oc1ccccc1O2 | > 100 µM | > 100 µM | 26.1 µM | > 100 µM | > 100 µM | 35.6 µM | > 71.4 µM | > 100 µM | > 100 µM | 47.9 µM | 58.5 µM | > 100 µM | > 100 µM | > 93.6 µM | – | – | – | – | – | 19.5 µM |
| CC(C)[C@@H]1CC[C@@H](C)C[C@H]1OC(=O)/C=C1/C2C=CC(O2)C1C(=O)O[C@@H]1C[C@H](C)CC[C@H]1C(C)C (some centres not stated) | > 100 µM | > 100 µM | > 100 µM | > 100 µM | > 100 µM | > 100 µM | > 100 µM | > 100 µM | > 100 µM | > 100 µM | > 100 µM | > 100 µM | > 100 µM | > 100 µM | – | – | – | – | – | – |
| CCCCCC(=O)N[C@@H](c1ccccc1)C(O)C(=O)OC1C[C@@]2(O)C(OC(=O)c3ccccc3)C3[C@](C)(C(=O)[C@H](O)C(=C1C)C2(C)C)C(OC1OCC(O)C(O)C1O)C[C@H]1OC[C@@]31OC(C)=O (some centres not stated) | > 100 µM | > 100 µM | > 100 µM | 1.78 µM | > 100 µM | > 100 µM | > 100 µM | > 26.1 µM | > 100 µM | 5.68 µM | > 100 µM | > 100 µM | > 38.3 µM | > 100 µM | – | – | – | – | – | – |
| COc1cc(OC)c2c(O)c3c(cc2c1)CC(C)(C)CC3=O | > 100 µM | > 100 µM | > 100 µM | > 100 µM | > 100 µM | > 100 µM | > 100 µM | > 100 µM | > 100 µM | > 100 µM | > 100 µM | > 100 µM | > 100 µM | > 100 µM | – | – | – | – | – | – |
| O=C1/C(=C\c2cccc(Oc3ccccc3)c2)S(=O)(=O)C(c2ccccc2)N1c1ccccc1Cl (configuration not stated) | 39.2 µM | > 100 µM | 73.5 µM | 87 µM | 64.2 µM | > 100 µM | > 100 µM | > 100 µM | 32 µM | 34.3 µM | > 100 µM | > 100 µM | > 100 µM | > 100 µM | – | – | – | – | – | – |
